From US7834148B2, “Protein phosphorylation imaging systems, methods of making phosphorylation imaging systems, and methods of use thereof” (Stanford University, priority 2006, dated 2010)

What was measured:
[1] = test system: Akt kinase activity; assay: Akt kinase sensor complemented FL activity, bioluminescence imaging of intact 293T/AS1T and 293T/AS1A stable cells; type: cell-based, human
Method: Complemented FL activity at each time point was determined by bioluminescence imaging of intact cells by addition of D-luciferin (FIG. 7a), prior to normalization for protein content (FIG. 7b).
FL activities in intact cells were determined by bioluminescence imaging of intact cells as described above. Cells were lysed in 1% NP40 buffer (Cell Signaling, Beverly, Mass.) for 15 mins on ice followed by centrifugation at 1×10^4 g to remove cell debris. Protein concentrations were determined by Biorad protein Dc assay (Biorad). FL activities were normalized to protein content and then to that of carrier control treated cells and expressed as normalized FL activity±standard error of means (S.E.M.)

[2] = test system: phosphorylated Akt(S^473); assay: Phosphorylation-specific western blotting of Akt in cell lysates; type: cell-based, human; conditions: LY 24 hours or perifosine 6 hours
Method: To validate AS1T as a genetically-encoded reporter for indirect imaging of endogenous Akt kinase activity, confirmation needed to be made that inhibition of endogenous Akt phosphorylation/kinase activities by LY and perifosine corresponded to increase in complemented FL activities in 293T/AS1T cells, but not in 293T/AS1A cells. 293T/AS1T and 293T/AS1A cells were treated with perifosine (6 hours), LY (24 hours) and their respective carrier controls. Complemented FL activities were determined by bioluminescence imaging of intact cells while Akt phosphorylation status/kinase activities in cell lysates were determined by phosphorylation-specific western blotting and in vitro kinase assay using purified glycogen synthase kinase 3β (GSK-3β) as the substrate, respectively. In 293T/AS1T cells treated with LY or perifosine, complemented FL activity increased (FIGS. 8a and 8c), while the amount of phosphorylated Akt (FIGS. 8b and 8d, top panels) and phosphorylated GSk-3, (FIGS. 8b and 8d, bottom panel) decreased, relative to carrier control treated cells. […]
To determine the expression of total and phosphorylated Akt in 293T/AS1A and 293T/AS1T, cell lysates from the triplicate wells from the above FL assay were combined and the protein concentrations were re-determined. […]

[3] = test system: Akt kinase; assay: In vitro Akt kinase assay in cell lysates using purified GSK-3β as substrate; type: cell-based, human; conditions: LY 24 hours or perifosine 6 hours
Method: Complemented FL activities were determined by bioluminescence imaging of intact cells while Akt phosphorylation status/kinase activities in cell lysates were determined by phosphorylation-specific western blotting and in vitro kinase assay using purified glycogen synthase kinase 3β (GSK-3β) as the substrate, respectively.
To measure Akt kinase activities, 200 μg of whole cell lysates were used in an in vitro Akt kinase assay using a Cell Signaling kit (Beverly, Mass.). Briefly, Akt was immunoprecipitated using the immobilized Akt antibody, followed by an in vitro kinase assay at 30° C. for 1 hour using 1 μg of the purified GSK-3β fusion protein as the substrate. The kinase reaction was terminated with 3× loading buffer and heated at 95° C. for 3 mins. […] Membranes were developed as described above. In all cases, band intensities were quantified by Image J (National Institute of Health, Bethesada, Md.).

[4] = Water solubility (statement); type: physicochemical
[5] = 293T/AS1T cells, relative to carrier control

water solubility [4]: water soluble
SMILES: CCCCCCCCCCCCCCCCCCOP(=O)([O-])OC1CC[N+](C)(C)CC1 [perifosine]
complemented FL activity ([1]; 293T/AS1T at all time points (6, 12, 24 hours) and concentrations tested, compared to 293T/AS1A, p<0.05): dose-dependent increase | time of maximum increase in complemented FL activity ([1]; 293T/AS1T cells): 6 h | complemented FL activity after washout (reversibility) ([1]; 293T/AS1T, drug then carrier control, vs carrier control then drug or drug throughout, LY 50 μM 24+24 hours, perifosine 25 μM 6+6 hours): significantly lower | amount of phosphorylated Akt ([2]; 293T/AS1A cells): decreased | amount of phosphorylated Akt [2, 5]: decreased | amount of phosphorylated GSK-3β ([3]; 293T/AS1A cells): decreased | amount of phosphorylated GSK-3β [3, 5]: decreased
